What was measured:
[1] = target: Human immunodeficiency virus type 1 protease (Human immunodeficiency virus 1, UniProt Q72874); test: Compound was tested for its inhibitory activity against HIV-1 protease
[2] = test system: H9; test: Inhibitory activity was evaluated against HIV-1 in H9 and Sup T1 cell lines as assessed by syncytium formation and reverse transcriptase assay; type: functional, cell-based; details: Homo sapiens
[3] = target: Human immunodeficiency virus type 1 protease (Human immunodeficiency virus 1) (UniProt Q72874); test: Bimolecular rate constant for the formation of HIV-1 protease complex was evaluated
[4] = test system: H9; test: Inhibitory activity was evaluated against HIV-1 protease by using reverse transcription assay; type: functional, cell-based; details: Homo sapiens
[5] = target: Cathepsin D (Homo sapiens, UniProt P07339); test: Inhibition against human cathepsin D was determined
Cathepsin D, sequence (P07339 65-162 limits assumed): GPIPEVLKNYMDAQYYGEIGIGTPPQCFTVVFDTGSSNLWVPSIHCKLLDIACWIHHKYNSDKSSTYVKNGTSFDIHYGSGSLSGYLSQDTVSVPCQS
Cathepsin D, sequence (P07339 169-412 limits assumed): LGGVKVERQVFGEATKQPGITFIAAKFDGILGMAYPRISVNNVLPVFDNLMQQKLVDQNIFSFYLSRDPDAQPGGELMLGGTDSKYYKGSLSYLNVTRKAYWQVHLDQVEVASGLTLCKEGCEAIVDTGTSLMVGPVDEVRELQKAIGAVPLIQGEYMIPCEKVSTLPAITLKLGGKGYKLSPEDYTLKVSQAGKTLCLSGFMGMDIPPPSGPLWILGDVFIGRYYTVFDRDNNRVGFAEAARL

[6] = target: T1, Renin (Homo sapiens, UniProt P00797); test: Inhibition against human renin was determined; IA means inactive
T1 sequence (P00797 whole entry): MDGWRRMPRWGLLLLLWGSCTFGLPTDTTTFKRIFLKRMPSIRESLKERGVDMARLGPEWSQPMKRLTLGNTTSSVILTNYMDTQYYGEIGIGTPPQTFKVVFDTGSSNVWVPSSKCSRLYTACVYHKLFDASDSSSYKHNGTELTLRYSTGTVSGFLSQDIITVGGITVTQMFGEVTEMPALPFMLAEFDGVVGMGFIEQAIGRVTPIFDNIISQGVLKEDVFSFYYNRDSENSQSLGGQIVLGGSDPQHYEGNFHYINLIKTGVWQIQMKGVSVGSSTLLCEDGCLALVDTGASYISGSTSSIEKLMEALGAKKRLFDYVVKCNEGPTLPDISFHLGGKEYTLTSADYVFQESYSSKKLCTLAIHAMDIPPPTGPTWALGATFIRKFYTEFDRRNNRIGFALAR

SMILES | Ki [1] | IC50 [2] | K inact/Ki [3] | IC50 [4] | IC50 [5] | IC50 [6]
CC(C)(C)NS(=O)(=O)CC[C@@H]1O[C@@H]1[C@H](Cc1ccccc1)NC(=O)C(CC(N)=O)NC(=O)c1ccc2ccccc2n1 (stereo partly specified) | 12.6 nM | 30 nM | 250000 M⁻¹ s⁻¹ | – | – | –
CCN(C(C)C)S(=O)(=O)CC[C@@H]1O[C@@H]1[C@H](Cc1ccccc1)NC(=O)[C@@H](NC(=O)c1cccs1)C(C)(C)S(C)(=O)=O | 3.1 nM | 18.2 nM | 1.05e+06 M⁻¹ s⁻¹ | – | – | –
CCN(c1ccccc1)S(=O)(=O)CC[C@@H]1O[C@@H]1[C@H](Cc1ccccc1)NC(=O)[C@@H](NC(=O)c1ccc2ccccc2n1)C(C)(C)S(C)(=O)=O | 5 nM | 10.7 nM | 650000 M⁻¹ s⁻¹ | – | – | –
CC(C)C(NC(=O)C[C@@H]1O[C@@H]1[C@H](Cc1ccccc1)NC(=O)[C@H](CC(N)=O)NC(=O)c1ccc2ccccc2n1)C(C)C | – | 20 nM | 3.33e+06 M⁻¹ s⁻¹ | – | – | –
CC(C)(C)NS(=O)(=O)CC[C@@H]1O[C@@H]1[C@H](Cc1ccccc1)NC(=O)[C@@H](NC(=O)OCc1ccccc1)C(C)(C)S(C)(=O)=O | 0.7 nM | 20.2 nM | 1.33e+06 M⁻¹ s⁻¹ | – | – | –
CCN(C(C)C)S(=O)(=O)CC[C@@H]1O[C@@H]1[C@H](Cc1ccccc1)NC(=O)[C@@H](NC(=O)OCc1ccccc1)C(C)(C)S(C)(=O)=O | 0.8 nM | – | 1.63e+06 M⁻¹ s⁻¹ | 10.9 nM | – | –
CC(C)N(C(=O)c1ccccc1)S(=O)(=O)CC[C@@H]1O[C@@H]1[C@H](Cc1ccccc1)NC(=O)[C@@H](NC(=O)OCc1ccccc1)C(C)(C)S(C)(=O)=O | 3.6 nM | 15 nM | 917000 M⁻¹ s⁻¹ | – | – | –
CCN(C(C)C)S(=O)(=O)CC[C@@H]1O[C@@H]1[C@H](Cc1ccccc1)NC(=O)[C@@H](NC(=O)c1ccc2ccccc2n1)C(C)(C)S(C)(=O)=O | 7 nM | 6.6 nM | 483000 M⁻¹ s⁻¹ | – | 8200 nM | Not Active
CCN(CC(C)C)S(=O)(=O)CC[C@@H]1O[C@@H]1[C@H](Cc1ccccc1)NC(=O)[C@@H](NC(=O)OCc1ccccc1)C(C)(C)S(C)(=O)=O | 2.9 nM | 10.7 nM | 1.15e+06 M⁻¹ s⁻¹ | – | – | –
CCN(c1ccccc1)S(=O)(=O)CC[C@@H]1O[C@@H]1[C@H](Cc1ccccc1)NC(=O)[C@@H](NC(=O)OCc1ccccc1)C(C)(C)S(C)(=O)=O | 4.6 nM | 13.8 nM | 717000 M⁻¹ s⁻¹ | – | – | –
